Data on two compounds can be found in patent publication US20240174632A1, “INHIBITING HUMAN INTEGRIN (ALPHA-4) (BETA-7)” (Morphic Therapeutic, Inc., priority 2019, published 2024).

As a reminder, the IC50 is the concentration needed to halve the response being measured.

In one experiment the target is T1, integrin α4β7 (Homo sapiens, UniProt P13612+P26010).
T1 sequence (P13612 34-1032): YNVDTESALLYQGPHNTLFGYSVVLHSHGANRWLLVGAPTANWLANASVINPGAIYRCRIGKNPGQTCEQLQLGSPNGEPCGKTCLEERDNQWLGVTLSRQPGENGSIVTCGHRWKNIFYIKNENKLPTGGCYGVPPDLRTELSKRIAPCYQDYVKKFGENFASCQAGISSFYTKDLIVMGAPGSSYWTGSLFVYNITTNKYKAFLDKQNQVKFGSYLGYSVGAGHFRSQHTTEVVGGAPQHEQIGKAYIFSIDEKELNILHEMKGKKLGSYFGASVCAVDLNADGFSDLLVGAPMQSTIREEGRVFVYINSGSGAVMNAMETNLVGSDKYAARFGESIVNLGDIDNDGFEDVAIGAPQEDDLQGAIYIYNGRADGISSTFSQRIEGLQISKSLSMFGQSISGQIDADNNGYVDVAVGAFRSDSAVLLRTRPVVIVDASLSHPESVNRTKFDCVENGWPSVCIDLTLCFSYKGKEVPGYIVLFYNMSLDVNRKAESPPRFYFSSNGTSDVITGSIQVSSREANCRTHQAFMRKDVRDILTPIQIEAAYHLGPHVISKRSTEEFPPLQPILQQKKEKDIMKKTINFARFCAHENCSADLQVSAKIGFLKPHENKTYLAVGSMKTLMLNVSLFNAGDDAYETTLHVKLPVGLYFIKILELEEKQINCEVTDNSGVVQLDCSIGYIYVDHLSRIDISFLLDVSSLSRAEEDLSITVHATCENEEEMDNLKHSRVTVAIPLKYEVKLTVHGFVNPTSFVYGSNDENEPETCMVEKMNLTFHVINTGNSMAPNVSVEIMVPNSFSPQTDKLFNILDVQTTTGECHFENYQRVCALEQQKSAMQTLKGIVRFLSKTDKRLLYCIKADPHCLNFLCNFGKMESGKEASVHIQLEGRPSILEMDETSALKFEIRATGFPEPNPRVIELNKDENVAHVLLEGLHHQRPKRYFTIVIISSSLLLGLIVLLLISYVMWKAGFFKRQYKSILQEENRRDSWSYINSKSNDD
T1 sequence (P26010 20-798): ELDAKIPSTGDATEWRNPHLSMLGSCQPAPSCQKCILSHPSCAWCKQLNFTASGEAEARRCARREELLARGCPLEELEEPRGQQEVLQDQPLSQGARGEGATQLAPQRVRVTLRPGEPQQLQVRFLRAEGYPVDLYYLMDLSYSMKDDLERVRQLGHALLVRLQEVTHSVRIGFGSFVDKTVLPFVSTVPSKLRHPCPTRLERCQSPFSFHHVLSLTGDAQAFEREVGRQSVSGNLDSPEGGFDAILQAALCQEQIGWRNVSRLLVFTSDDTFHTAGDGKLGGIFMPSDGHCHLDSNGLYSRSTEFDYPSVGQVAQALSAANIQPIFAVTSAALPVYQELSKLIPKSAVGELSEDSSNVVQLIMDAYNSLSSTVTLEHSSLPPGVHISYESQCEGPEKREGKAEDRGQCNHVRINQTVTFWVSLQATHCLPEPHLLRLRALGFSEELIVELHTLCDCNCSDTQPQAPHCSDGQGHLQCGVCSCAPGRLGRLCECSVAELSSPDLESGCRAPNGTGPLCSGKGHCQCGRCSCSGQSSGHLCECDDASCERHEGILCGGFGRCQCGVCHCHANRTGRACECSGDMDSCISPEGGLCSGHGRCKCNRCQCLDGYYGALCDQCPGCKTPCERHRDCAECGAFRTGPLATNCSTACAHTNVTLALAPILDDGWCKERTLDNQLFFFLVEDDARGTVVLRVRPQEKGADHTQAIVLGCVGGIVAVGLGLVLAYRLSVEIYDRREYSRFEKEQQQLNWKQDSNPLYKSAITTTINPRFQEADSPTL
Kind of experiment: Fluorescence Polarization (FP) assay for α4β7 binding, competition with fluorescein-labeled peptide. The note with it: 6.5 nM integrin α4β7, 3 nM fluorescein-labeled peptide, 2 mM MnCl2; Tables 3A, 3B, 4; read-out: FP Assay (Example 5) IC50. The protocol: (§1) Three in vitro assays were used to examine the α4β7 mechanistic process used by cells: 1) ligand:receptor affinity, 2) the avidity of those interactions on a cell's surface, and 3) how those interactions fare under an imposing force. In Example 5, a Fluorescence Polarization (FP) assay is used to measure compound activity through binding competition with the fluorescein-labeled peptide. In Example 6, the potency of compounds against α4β7 is measured in the cell-based ligand binding assay (LBA), using RPMI 8866 cells incubated with the compound samples in competition with soluble MAdCAM-1 ligand. In Example 7, activity of compounds is evaluated in a cell adhesion assay that mechanistically tests what occurs in vivo when trafficking cells utilize α4β7 to adhere to MAdCAM-1 expressing HEVs of the gut during the extravasation process. […] Unattached cells are removed and the remaining adherent cells are quantified.
Fluorescence Polarization (FP) assays were used to measure compound activity through binding competition with the fluorescein-labeled peptide […]{Lys(FITC)}. […] After the fluorescein-labeled peptide was added, the assay was incubated at 22° C. for 1 hour and fluorescence polarization was measured. IC50 values were determined by non-linear regression, four-parameter curve fitting.
On the technique in general: Polarisation of emitted light reports the rotation of a fluorescent probe.

The target of experiment [1] is T2, α4β7 (Homo sapiens, UniProt P13612+P26010).
T2 construct: endogenous in cells; host or cells: RPMI 8866 cells
T2 sequence (P13612 34-1032): T1 sequence (P13612 34-1032)
T2 sequence (P26010 20-798): T1 sequence (P26010 20-798)
Kind of experiment: Cell adhesion assay, RPMI8866 cells adhering to MAdCAM coated plates. In kind it is cell-based. Conditions: RPMI8866 cells on recombinant human MAdCAM coated plates; Tables 3A, 3B, 4; read-out: CA Assay (Example 7) IC50. The protocol:
as §1, with “quantified. […]” for “quantified.”
To each well of a 96 well plate, 100 ug of recombinant human MAdCAM in 100 ul PBS is added and incubated overnight at 4° C. […] Plate is incubated on shaker for 2 minutes at 200 RPM followed by another 8 minutes off shaker before having the luminescence read on a Biotek Citation 5 plate reader. Raw data is converted to % inhibition compared to bottom of curve and analyzed using a 4-parameter non linear curve in Prism to determine IC50 and IC90.

Experiment [2] deals with T2, α4β7. Kind of experiment: Cell-based ligand binding assay (LBA), RPMI 8866 cells, competition with soluble MAdCAM-1-Fc. Conditions: MAdCAM-1-Fc Dylight 650, flow cytometry, Tables 3A, 3B, 4, read-out: LB Assay (Example 6) IC50. As for the experimental part:
as §1
5 ul of 33 nM MAdCAM-1-Fc fluorescently labeled with Dylight 650 in 50 mM HEPES pH 7.3, 150 mM sodium chloride, and 1% bovine serum albumin was added to the cells. […] Fluorescence intensity for each cell was measured via flow cytometry. […] Median fluorescence intensity for Dylight 650 was determined for each sample and concentration-response curves were analyzed for IC50 values using 4-parameter non-linear regression analysis.
A general note: Flow cytometry measures light scatter and fluorescence of single cells or particles in a stream.

For the compound `Cc1cc(=O)n([C@@H](CC(C)C)C(=O)N[C@@H](CC(=O)O)c2cc(-c3c(C)cccc3C)cc(F)c2F)cc1CCN1CC(F)C1` [D-P2, (3S)-3-(4,5-difluoro-2′,6′-dimethylbiphenyl-3-yl)-3-(2-(5-(2-(3-fluoroazetidin-1-yl)ethyl)-4-methyl-2-oxopyridin-1(2H)-yl)-4-methylpentanamido)propanoic acid], the IC50 at integrin α4β7 is less than 0.01 µM; on α4β7 [1], less than 0.005 µM.
As for `COc1ccc(C)c(-c2cc(C)c(F)c([C@H](CC(=O)O)NC(=O)C(CC(C)C)n3cc(CCN4CCC4)c(C(F)(F)F)cc3=O)c2)c1C` (single isomer, unassigned) [AG-P2], the IC50 is less than 0.01 µM on integrin α4β7 and not above 0.01 µM on α4β7 [2].
